Source: patent publication US8722733B2 (XenoPort, Inc., priority 2008, dated 2014)

Legend:
[1] = Interconversion of the anhydrous and hydrated crystalline forms (XRPD); assay type: physicochemical
Description: X-ray powder diffraction (XRPD) analysis was performed using a PANalytical X'Pert Pro X-ray diffractometer. The X-ray source was Cu-kα1 with output voltage of 45 kV and current of 40 mA. The instrument employed para-focusing Bragg-Brentano geometry with incident divergence and scattering slits set at 1/16° and ⅛°, respectively. 0.04-mm radius soller slits were used for both the incident and diffracted beams to remove axial divergence. Powder samples (9-12 mg) were gently pressed onto a single crystal silicon sample holder to form a smooth surface, and samples were spun at 8 sec/revolution throughout the data acquisition process. The samples were scanned from 2° to 40° (2θ) with a step size of 0.017° (2θ°) and a scan speed of 0.067°/sec. Data acquisition was controlled and analyzed with X'Pert Data Collector Software (version 2.2d) and X'Pert Data Viewer (version 1.2c), respectively.
The anhydrous and hydrated crystalline forms of (2R)-2-phenylcarbonyloxypropyl (2S)-2-amino-3-(3,4-dihydroxyphenyl)propanoate mesylate interconvert depending on the water content of the environment.

[2] = Water sorption/desorption (dynamic vapor sorption); assay type: physicochemical; conditions: 25° C., humidity cycle 5% RH to 95% RH at 10% RH intervals
Description: The hygroscopicity of (2R)-2-phenylcarbonyloxypropyl (2S)-2-amino-3-(3,4-dihydroxyphenyl)propanoate mesylate, hydrate was evaluated during one vapor sorption-desorption cycle using a VTI SGA-100 dynamic vapor sorption analyzer. (2R)-2-Phenylcarbonyloxypropyl (2S)-2-amino-3-(3,4-dihydroxyphenyl)propanoate mesylate, hydrate was first dried at 25° C. for 180 min under a nitrogen atmosphere. The material was considered equilibrated when the weight change during 2 min was less than 0.01%. To evaluate the vapor sorption-desorption at 25° C., the dried (2R)-2-phenylcarbonyloxypropyl (2S)-2-amino-3-(3,4-dihydroxyphenyl)propanoate mesylate, hydrate was exposed to a humidity cycle ramped (and deramped) from 5% RH to 95% RH at 10% RH intervals. At each humidity interval, the material was equilibrated as determined by a less than 0.01% weight change during 5 min.

Structure (SMILES) | Crystal form after heating and then room temperature and humidity ([1]; after heating at 70° C., left at room temperature and humidity for 1 day) | Crystal form after heating ([1]; heated from 25° C. to 70° C. at 2° C./min, held at 70° C. for 15 min) | Crystal form after vacuum drying and then room temperature and humidity ([1]; vacuum dried overnight, then 25° C. and 40-60% RH for one day) | Hygroscopicity: vapor sorption-desorption [2] | Time for conversion to the hydrate in the presence of water vapor ([1]; about 25° C., humidity of at least about 60% RH) [h]
CS(=O)(=O)O.C[C@H](COC(=O)[C@@H](N)Cc1ccc(O)c(O)c1)OC(=O)c1ccccc1.O [(2R)-2-phenylcarbonyloxypropyl (2S)-2-amino-3-(3,4-dihydroxyphenyl)propanoate mesylate, hydrate] | reverts to crystalline (2R)-2-phenylcarbonyloxypropyl (2S)-2-amino-3-(3,4-dihydroxyphenyl)propanoate mesylate, hydrate | converted to a transient/metastable crystalline form | a mixture of crystalline anhydrous and hydrate forms | humidity-dependent reversible sorption and desorption of water vapor | –
CS(=O)(=O)O.C[C@H](COC(=O)[C@@H](N)Cc1ccc(O)c(O)c1)OC(=O)c1ccccc1 [compound 1, (2R)-2-phenylcarbonyloxypropyl (2S)-2-amino-3-(3,4-dihydroxyphenyl)propanoate mesylate] | – | – | – | – | ≤ 24
